Measurements taken from paper PMC8222254, “Self-assembly of an anion receptor with metal-dependent kinase inhibition and potent in vitro anti-cancer properties” (Nature Communications, 2021).
“And” between values parts separate entries of the source, which are not always exact repeats. Equal entries are not always repeated.

Experiments:
Assay in all cases: Kinase inhibition screen, cell-free 33P ATP assay at 10 μM
Assay type in all cases: biochemical
[1] = molecular target: 140 purified human kinases (Homo sapiens, UniProt P00519); conditions: ABL
Summary of the method: (§1)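 Each complex tested in duplicate at 10 μM; cell-free radiometric assay using ^33P ATP on purified enzymes. Hits mapped by HGNC symbol onto the kinome tree.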

[2] = molecular target: 140 purified human kinases (Homo sapiens, UniProt P53779)
Summary of the method: as §1

[3] = molecular target: 140 purified human kinases (Homo sapiens, UniProt Q96SB4)
Summary of the method: as §1

[4] = molecular target: 140 purified human kinases (Homo sapiens, UniProt P54764)
Summary of the method: as §1

[5] = molecular target: 140 purified human kinases (Homo sapiens, UniProt Q9P286); conditions: for % Activity Run 1 / % Activity Run 2: 10 µM
Summary of the method: as §1

[6] = molecular target: T1, 140 purified human kinases (Homo sapiens, UniProt O14965); conditions: Aurora A
T1 sequence (O14965 1-403): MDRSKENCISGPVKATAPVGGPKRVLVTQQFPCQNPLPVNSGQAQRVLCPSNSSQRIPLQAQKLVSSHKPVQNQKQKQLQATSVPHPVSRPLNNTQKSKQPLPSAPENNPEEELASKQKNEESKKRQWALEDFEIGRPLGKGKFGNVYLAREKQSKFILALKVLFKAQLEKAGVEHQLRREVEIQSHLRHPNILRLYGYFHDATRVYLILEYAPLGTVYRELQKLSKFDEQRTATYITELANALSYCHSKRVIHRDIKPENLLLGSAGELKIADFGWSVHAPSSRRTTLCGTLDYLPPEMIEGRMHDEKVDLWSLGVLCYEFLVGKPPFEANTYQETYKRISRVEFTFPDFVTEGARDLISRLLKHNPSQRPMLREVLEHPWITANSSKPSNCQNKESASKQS
Summary of the method: as §1

[7] = molecular target: 140 purified human kinases (Homo sapiens, UniProt O75116); conditions: ROCK 2
Summary of the method: as §1

[8] = molecular target: T2, 140 purified human kinases (Homo sapiens, UniProt Q8TD08)
T2 sequence (Q8TD08 1-544): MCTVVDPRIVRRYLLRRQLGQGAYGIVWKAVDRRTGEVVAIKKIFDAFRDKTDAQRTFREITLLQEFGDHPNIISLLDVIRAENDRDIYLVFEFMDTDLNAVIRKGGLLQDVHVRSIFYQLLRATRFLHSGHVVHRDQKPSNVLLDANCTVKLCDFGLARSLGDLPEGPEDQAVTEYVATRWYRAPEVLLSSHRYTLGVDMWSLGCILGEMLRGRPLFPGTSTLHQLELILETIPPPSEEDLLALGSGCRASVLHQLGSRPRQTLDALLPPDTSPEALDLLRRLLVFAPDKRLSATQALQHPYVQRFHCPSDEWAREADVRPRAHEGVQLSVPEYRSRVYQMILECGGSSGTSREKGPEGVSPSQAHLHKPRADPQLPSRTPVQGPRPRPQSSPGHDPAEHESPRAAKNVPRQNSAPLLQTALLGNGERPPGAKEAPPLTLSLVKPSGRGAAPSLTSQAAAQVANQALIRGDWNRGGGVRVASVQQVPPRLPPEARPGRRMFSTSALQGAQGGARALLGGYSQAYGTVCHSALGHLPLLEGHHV
Summary of the method: as §1

[9] = molecular target: T3, 140 purified human kinases (Homo sapiens, UniProt P51955); conditions: NEK2a
T3 sequence (P51955 1-445): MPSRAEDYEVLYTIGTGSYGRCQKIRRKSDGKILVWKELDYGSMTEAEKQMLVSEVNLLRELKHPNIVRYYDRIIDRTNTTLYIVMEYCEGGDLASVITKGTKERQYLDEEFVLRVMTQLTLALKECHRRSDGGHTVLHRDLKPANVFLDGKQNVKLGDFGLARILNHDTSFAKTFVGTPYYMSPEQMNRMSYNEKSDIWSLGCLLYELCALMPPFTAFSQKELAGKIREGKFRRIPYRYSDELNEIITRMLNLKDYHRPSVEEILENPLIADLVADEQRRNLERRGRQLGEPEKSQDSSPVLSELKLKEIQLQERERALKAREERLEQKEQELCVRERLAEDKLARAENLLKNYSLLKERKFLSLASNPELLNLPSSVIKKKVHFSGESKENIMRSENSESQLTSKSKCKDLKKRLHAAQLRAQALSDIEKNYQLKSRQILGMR
Summary of the method: as §1

Sequence of 140 purified human kinases (Homo sapiens, UniProt Q9P286) (Q9P286 whole entry): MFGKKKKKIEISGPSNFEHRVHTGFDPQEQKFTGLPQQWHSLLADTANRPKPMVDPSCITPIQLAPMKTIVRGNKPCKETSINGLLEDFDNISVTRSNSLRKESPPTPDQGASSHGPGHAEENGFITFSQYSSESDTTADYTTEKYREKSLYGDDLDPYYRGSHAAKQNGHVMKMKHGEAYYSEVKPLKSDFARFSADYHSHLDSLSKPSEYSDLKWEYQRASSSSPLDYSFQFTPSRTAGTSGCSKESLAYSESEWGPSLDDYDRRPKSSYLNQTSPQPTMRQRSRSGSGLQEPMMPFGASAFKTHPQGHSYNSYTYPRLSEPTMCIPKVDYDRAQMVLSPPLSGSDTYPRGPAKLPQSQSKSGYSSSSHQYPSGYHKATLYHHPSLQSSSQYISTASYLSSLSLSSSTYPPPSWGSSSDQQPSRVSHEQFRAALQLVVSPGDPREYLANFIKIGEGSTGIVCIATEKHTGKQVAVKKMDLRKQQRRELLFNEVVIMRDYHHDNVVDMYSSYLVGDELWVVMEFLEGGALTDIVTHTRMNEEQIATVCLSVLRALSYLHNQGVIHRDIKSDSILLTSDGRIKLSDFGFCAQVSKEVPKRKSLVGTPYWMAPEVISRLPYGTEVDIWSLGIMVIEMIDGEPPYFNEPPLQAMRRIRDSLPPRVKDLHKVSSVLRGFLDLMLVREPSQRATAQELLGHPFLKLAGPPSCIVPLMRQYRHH
Sequence of 140 purified human kinases (Homo sapiens, UniProt P54764) (P54764 20-986): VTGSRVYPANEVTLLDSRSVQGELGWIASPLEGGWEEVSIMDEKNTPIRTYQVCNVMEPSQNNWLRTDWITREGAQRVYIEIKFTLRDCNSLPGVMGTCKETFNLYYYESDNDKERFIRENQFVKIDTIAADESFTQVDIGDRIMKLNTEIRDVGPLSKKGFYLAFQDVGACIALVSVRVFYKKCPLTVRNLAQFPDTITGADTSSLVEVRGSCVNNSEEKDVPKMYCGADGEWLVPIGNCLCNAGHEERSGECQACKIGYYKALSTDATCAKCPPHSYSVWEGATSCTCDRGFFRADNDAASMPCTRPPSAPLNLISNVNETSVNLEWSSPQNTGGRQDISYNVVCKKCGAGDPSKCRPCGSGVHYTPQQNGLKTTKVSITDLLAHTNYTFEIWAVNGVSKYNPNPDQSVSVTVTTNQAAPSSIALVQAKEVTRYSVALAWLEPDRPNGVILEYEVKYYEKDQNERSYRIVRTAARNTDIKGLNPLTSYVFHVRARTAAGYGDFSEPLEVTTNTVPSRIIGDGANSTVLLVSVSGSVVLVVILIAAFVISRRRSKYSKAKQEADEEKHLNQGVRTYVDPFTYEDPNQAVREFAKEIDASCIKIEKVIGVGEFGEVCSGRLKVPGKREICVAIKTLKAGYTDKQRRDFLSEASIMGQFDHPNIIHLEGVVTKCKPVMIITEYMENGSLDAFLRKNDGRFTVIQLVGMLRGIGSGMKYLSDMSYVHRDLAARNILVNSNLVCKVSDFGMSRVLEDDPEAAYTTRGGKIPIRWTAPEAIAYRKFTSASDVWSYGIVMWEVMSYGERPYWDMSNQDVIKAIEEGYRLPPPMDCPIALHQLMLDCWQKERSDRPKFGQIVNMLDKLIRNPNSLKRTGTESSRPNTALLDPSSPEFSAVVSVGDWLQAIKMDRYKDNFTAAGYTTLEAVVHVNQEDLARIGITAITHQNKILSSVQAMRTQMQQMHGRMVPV
Sequence of 140 purified human kinases (Homo sapiens, UniProt Q96SB4) (Q96SB4 whole entry): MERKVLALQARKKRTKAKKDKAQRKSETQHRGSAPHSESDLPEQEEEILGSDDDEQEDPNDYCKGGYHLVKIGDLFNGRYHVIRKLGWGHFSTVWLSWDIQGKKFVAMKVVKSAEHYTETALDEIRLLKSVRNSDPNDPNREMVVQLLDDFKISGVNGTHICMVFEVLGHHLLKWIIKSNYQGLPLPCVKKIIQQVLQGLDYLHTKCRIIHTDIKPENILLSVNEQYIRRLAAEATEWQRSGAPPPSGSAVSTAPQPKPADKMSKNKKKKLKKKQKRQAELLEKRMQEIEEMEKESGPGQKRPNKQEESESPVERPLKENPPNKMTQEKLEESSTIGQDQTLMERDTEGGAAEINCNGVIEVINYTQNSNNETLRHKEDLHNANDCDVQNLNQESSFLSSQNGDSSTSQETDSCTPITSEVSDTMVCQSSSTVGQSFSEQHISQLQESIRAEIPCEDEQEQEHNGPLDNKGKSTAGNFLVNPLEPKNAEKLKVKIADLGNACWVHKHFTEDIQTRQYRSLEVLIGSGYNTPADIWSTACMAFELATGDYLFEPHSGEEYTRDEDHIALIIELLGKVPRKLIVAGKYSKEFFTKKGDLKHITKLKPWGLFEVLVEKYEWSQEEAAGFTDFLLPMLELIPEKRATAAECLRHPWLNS
Sequence of 140 purified human kinases (Homo sapiens, UniProt P53779) (P53779 whole entry): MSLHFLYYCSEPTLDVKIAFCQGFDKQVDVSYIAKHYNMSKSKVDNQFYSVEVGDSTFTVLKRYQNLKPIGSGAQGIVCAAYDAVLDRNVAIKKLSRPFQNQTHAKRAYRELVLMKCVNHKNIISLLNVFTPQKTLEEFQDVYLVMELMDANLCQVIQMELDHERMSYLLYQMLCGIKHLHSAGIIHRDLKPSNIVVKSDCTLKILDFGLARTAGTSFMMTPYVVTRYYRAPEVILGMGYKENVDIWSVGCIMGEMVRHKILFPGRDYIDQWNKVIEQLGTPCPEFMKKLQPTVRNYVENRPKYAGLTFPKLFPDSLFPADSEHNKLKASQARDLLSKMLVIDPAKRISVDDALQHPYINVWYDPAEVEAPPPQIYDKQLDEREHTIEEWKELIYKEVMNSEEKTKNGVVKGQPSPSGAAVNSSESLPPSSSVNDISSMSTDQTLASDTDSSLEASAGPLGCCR
Sequence of 140 purified human kinases (Homo sapiens, UniProt P00519) (P00519 whole entry): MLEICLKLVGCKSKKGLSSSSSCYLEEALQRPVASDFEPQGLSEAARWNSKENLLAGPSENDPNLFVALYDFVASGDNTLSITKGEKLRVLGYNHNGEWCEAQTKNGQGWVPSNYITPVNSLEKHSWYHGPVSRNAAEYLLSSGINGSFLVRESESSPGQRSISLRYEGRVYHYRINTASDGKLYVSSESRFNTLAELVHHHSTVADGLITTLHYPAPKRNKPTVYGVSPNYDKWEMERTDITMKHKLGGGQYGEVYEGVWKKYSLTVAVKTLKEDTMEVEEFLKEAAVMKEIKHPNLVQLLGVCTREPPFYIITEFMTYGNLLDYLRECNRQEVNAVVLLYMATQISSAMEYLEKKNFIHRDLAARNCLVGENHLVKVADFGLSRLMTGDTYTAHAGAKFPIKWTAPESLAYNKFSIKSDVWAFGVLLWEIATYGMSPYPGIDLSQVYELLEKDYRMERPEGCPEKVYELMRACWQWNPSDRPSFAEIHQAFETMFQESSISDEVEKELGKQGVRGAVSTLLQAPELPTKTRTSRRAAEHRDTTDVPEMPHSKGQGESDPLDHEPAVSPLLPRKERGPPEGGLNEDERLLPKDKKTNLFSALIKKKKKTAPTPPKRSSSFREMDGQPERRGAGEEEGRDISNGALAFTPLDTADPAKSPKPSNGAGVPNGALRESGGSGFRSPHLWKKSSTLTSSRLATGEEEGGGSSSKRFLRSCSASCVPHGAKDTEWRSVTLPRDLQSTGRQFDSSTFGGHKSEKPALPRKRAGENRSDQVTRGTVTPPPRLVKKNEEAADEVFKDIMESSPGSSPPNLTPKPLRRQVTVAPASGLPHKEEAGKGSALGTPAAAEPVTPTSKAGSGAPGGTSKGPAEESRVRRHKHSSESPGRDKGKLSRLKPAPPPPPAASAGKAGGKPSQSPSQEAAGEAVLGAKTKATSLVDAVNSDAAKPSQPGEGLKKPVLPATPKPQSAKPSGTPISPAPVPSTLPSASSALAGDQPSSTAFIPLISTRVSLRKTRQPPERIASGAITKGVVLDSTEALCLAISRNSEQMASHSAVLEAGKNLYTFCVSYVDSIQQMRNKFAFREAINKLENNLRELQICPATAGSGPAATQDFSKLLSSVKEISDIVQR

[Cu+2].[Cu+2].[Cu+2].c1ccc(-c2csc(NCCN(CCNc3nc(-c4ccccn4)cs3)CCNc3nc(-c4ccccn4)cs3)n2)nc1.c1ccc(-c2csc(NCCN(CCNc3nc(-c4ccccn4)cs3)CCNc3nc(-c4ccccn4)cs3)n2)nc1 [[L2Cu3]6+] was tested. Which “% Activation, Mean value” [1] did it give?
Its value is 17%.

What about the “% Inhibition Run 1” value [1] of the same compound?
Its value is -27.4%.

And the “% Inhibition Run 2” value [1]?
The value was -7.5%.

And the “% Inhibition, Mean” value [1]?
The value was -17%.

And the mean % activity [1]?
The mean % activity was 117%.

What about the “% activity” value ([1]; Run 1) of the same compound?
The value was 127.4%.

What about the “% activity” value ([1]; Run 2) of the same compound?
The value was 107.5%.

And the “% Activity Run 1” value ([1]; 10 µM)?
Its value is 127.40%.

What about the “% Activity Run 2” value ([1]; 10 µM) of the same compound?
Its value is 107.50%.

What about the “% Inhibition Run 1” value ([2]; JNK3) of the same compound?
Its value is 62%.

What about the “% Inhibition Run 2” value ([2]; JNK3) of the same compound?
The value was 41.6%.

And the “% Inhibition, Mean” value ([2]; JNK3)?
Its value is 52%.

What about the mean % activity ([2]; JNK3) of the same compound?
Its mean % activity is 48%.

And the “% activity” value ([2]; JNK3, Run 1)?
Its value is 38%.

What about the “% activity” value ([2]; JNK3, Run 2) of the same compound?
The value was 58.4%.

And the “% Inhibition Run 1” value ([3]; SRPK1)?
Its value is 58.1%.

And the “% Inhibition Run 2” value ([3]; SRPK1)?
Its value is 50.4%.

And the “% Inhibition, Mean” value ([3]; SRPK1)?
The value was 54%.

What about the mean % activity ([3]; SRPK1) of the same compound?
The mean % activity was 46%.

What about the “% activity” value ([3]; SRPK1, Run 1) of the same compound?
Its value is 41.9%.

What about the “% activity” value ([3]; SRPK1, Run 2) of the same compound?
The value was 49.6%.

What about the “% Inhibition Run 1” value ([4]; EPH-A4) of the same compound?
Its value is 4.5%.

What about the “% Inhibition Run 2” value ([4]; EPH-A4) of the same compound?
Its value is -3.1%.

And the “% Inhibition, Mean” value ([4]; EPH-A4)?
The value was 0.7%.

What about the mean % activity ([4]; EPH-A4) of the same compound?
The mean % activity was 99%.

And the “% activity” value ([4]; EPH-A4, Run 1)?
Its value is 95.5%.

And the “% activity” value ([4]; EPH-A4, Run 2)?
The value was 103.1%.

And the “% Activation, Mean value” ([5]; PAK5)?
The value was 10%.

What about the “% Inhibition Run 1” value ([5]; PAK5) of the same compound?
The value was -1.8%.

What about the “% Inhibition Run 2” value ([5]; PAK5) of the same compound?
Its value is -17.5%.

What about the “% Inhibition, Mean” value ([5]; PAK5) of the same compound?
The value was -10%.

And the mean % activity ([5]; PAK5)?
Its mean % activity is 110%.

What about the “% activity” value ([5]; PAK5, Run 1) of the same compound?
The value was 101.8%.

And the “% activity” value ([5]; PAK5, Run 2)?
The value was 117.5%.

And the “% Activity Run 1” value ([5]; PAK5)?
The value was 101.80%.

And the “% Activity Run 2” value ([5]; PAK5)?
The value was 117.50%.

What about the “% Inhibition Run 1” value [6] of the same compound?
The value was 30.9%.

What about the “% Inhibition Run 2” value [6] of the same compound?
Its value is 28.1%.

What about the “% Inhibition, Mean” value [6] of the same compound?
Its value is 30%.

What about the mean % activity [6] of the same compound?
Its mean % activity is 71%.

What about the “% activity” value ([6]; Run 1) of the same compound?
Its value is 69.1%.

What about the “% activity” value ([6]; Run 2) of the same compound?
The value was 71.9%.

And the “% Inhibition Run 1” value [7]?
The value was 83.5%.

And the “% Inhibition Run 2” value [7]?
The value was 77.5%.

What about the “% Inhibition, Mean” value [7] of the same compound?
Its value is 81%.

What about the mean % activity [7] of the same compound?
The mean % activity was 20%.

And the “% Activation, Mean value” ([8]; ERK8)?
Its value is 27%.

And the “% Inhibition Run 1” value ([8]; ERK8)?
Its value is -16.9%.

And the “% Inhibition Run 2” value ([8]; ERK8)?
Its value is -37.3%.

And the “% Inhibition, Mean” value ([8]; ERK8)?
The value was -27%.

And the mean % activity ([8]; ERK8)?
The mean % activity was 127%.

And the “% activity” value ([8]; ERK8, Run 1)?
The value was 116.9%.

What about the “% activity” value ([8]; ERK8, Run 2) of the same compound?
Its value is 137.3%.

What about the “% Activity Run 1” value ([8]; ERK8, 10 µM) of the same compound?
Its value is 116.90%.

What about the “% Activity Run 2” value ([8]; ERK8, 10 µM) of the same compound?
Its value is 137.30%.

What about the “% Inhibition Run 1” value [9] of the same compound?
The value was 94.1%.

And the “% Inhibition Run 2” value [9]?
Its value is 94%.

And the “% Inhibition, Mean” value [9]?
Its value is 94%.

What about the mean % activity [9] of the same compound?
The mean % activity was 6%.

What about the “% activity” value ([9]; Run 1) of the same compound?
The value was 5.9%.

And the “% activity” value ([9]; Run 2)?
Its value is 6%.

And the “% Activity inhibition Mean” value ([9]; 10 µM)?
Its value is 94.1%.

What about the “% Activity inhibition Run 1” value ([9]; 10 µM) of the same compound?
Its value is 94.1%.

And the “% Activity inhibition Run 2” value ([9]; 10 µM)?
The value was 94%.

What about the “% Activity remaining Run 1” value ([9]; 10 µM) of the same compound?
Its value is 5.90%.

And the “% Activity remaining Run 2” value ([9]; 10 µM)?
The value was 6.00%.

What does the source list for CC(=O)[O-].CC(=O)[O-].CC(=O)[O-].CC(=O)[O-].CC(=O)[O-].CC(=O)[O-].[Zn+2].[Zn+2].[Zn+2].c1ccc(-c2csc(NCCN(CCNc3nc(-c4ccccn4)cs3)CCNc3nc(-c4ccccn4)cs3)n2)nc1.c1ccc(-c2csc(NCCN(CCNc3nc(-c4ccccn4)cs3)CCNc3nc(-c4ccccn4)cs3)n2)nc1 [[L2Zn3]6+]?
% Inhibition, Mean [1]: 9%; mean % activity [1]: 91%; % activity ([1]; duplicate runs): 81% and 100%; % Inhibition, Mean ([2]; JNK3): 33%; % Inhibition, Run 1 / Run 2 ([2]; JNK3): 42% and 24%; mean % activity ([2]; JNK3): 67%; % activity ([2]; JNK3, duplicate runs): 58% and 76%; % Inhibition, Mean ([3]; SRPK1): 35%; mean % activity ([3]; SRPK1): 66%; % activity ([3]; SRPK1, duplicate runs): 53% and 78%; % Inhibition, Mean ([4]; EPH-A4): 27%; % Inhibition, Run 1 / Run 2 ([4]; EPH-A4): 30% and 25%; mean % activity ([4]; EPH-A4): 73%; % activity ([4]; EPH-A4, duplicate runs): 70% and 75%; % Activation, Mean value ([5]; PAK5): 20%; % Inhibition, Mean ([5]; PAK5): -20%; mean % activity ([5]; PAK5): 120%; % Activity Run 1 ([5]; PAK5): 110.0%; % Activity Run 2 ([5]; PAK5): 130.0%; % activity ([5]; PAK5, duplicate runs): 110% and 130%; % Inhibition, Mean [6]: 83%; % Inhibition, Run 1 / Run 2 [6]: 84% and 83%; mean % activity [6]: 17%; % Activity inhibition Mean ([6]; 10 µM): 83.5%; % Activity inhibition Run 1 ([6]; 10 µM): 84%; % Activity inhibition Run 2 ([6]; 10 µM): 83%; % Activity remaining Run 1 ([6]; 10 µM): 16%; % Activity remaining Run 2 ([6]; 10 µM): 17%; % activity ([6]; duplicate runs): 16% and 17%; % Activation, Mean value [7]: 17%; % Inhibition, Mean [7]: -17%; % Inhibition, Run 1 / Run 2 [7]: -20% and -14%; mean % activity [7]: 117%; % Activity Run 1 ([7]; 10 µM): 120.0%; % Activity Run 2 ([7]; 10 µM): 114.0%; % activity ([7]; duplicate runs): 120% and 114%; % Inhibition, Mean ([8]; ERK8): 15%; % Inhibition, Run 1 / Run 2 ([8]; ERK8): 15%; mean % activity ([8]; ERK8): 85%; % activity ([8]; ERK8, duplicate runs): 86% and 85%; % Inhibition, Mean [9]: 30%; mean % activity [9]: 70%; % activity ([9]; duplicate runs): 58% and 82%
